Where no end group is shown, it is not given here. [ ]: non-standard residue; d: D form. Lys(Me3) = C[N+](C)(C)CCCC[C@H](N)C(=O)O
Columns and labels:
Test in all cases: Histone peptide microarray
Type in all cases: binding, human
Conditions in all cases: sheet "Array Heatmap", total n = 4
ING1 = tested on: ING1
In short: (§1)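 Purified PHD finger domains fused to GST are screened against 293 synthetic histone peptides bearing one or several post-translational modifications. The protein is used at 0.5 μM, and the signal from four replicate arrays is averaged, with standard deviation given.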

PHF2 = tested on: PHF2
In short: as §1

CHD4 (PPCC) = tested on: CHD4 (PPCC)
In short: as §1

TAF3 = tested on: TAF3
In short: as §1

KDM5A (3) = tested on: KDM5A (3)
In short: as §1

CHD5 (PCC) = tested on: CHD5 (PCC)
In short: as §1

BAZ2B = tested on: BAZ2B
In short: as §1

AIRE (PP) = tested on: AIRE (PP)
In short: as §1

PHF23 = tested on: PHF23
In short: as §1

MLL5 = tested on: MLL5
In short: as §1

PHF13 = tested on: PHF13
In short: as §1

ING5 = tested on: ING5
In short: as §1

KDM4C (TTP) = tested on: KDM4C (TTP)
In short: as §1

KDM5B (1) = tested on: KDM5B (1)
In short: as §1

KDM5A (1) = tested on: KDM5A (1)
In short: as §1

PHF8 = tested on: PHF8
In short: as §1

PHRF1 (RP) = tested on: PHRF1 (RP)
In short: as §1

PHF21A = tested on: PHF21A
In short: as §1

RAG2 = tested on: RAG2
In short: as §1

ING3 = tested on: ING3
In short: as §1

ING4 = tested on: ING4
In short: as §1

BPTF (PB) = tested on: BPTF (PB)
In short: as §1

KDM5B (3) = tested on: KDM5B (3)
In short: as §1

SP140L = tested on: SP140L
In short: as §1

MORC3 (CW) = tested on: MORC3 (CW)
In short: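 GST-PHD reader, 0.5 μM, probed on 293-peptide histone array (single/combinatorial PTMs); optimized array protocol; signal = mean ± SD, n = 4.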

DPF2 (PPC2W2) = tested on: DPF2 (PPC2W2)
In short: as §1

KDM7A = tested on: KDM7A
In short: as §1

TRIM66 (PB) = tested on: TRIM66 (PB)
In short: as §1

CHD5 (PPCC) = tested on: CHD5 (PPCC)
In short: as §1

DIDO1 = tested on: DIDO1
In short: as §1

ING2 = tested on: ING2
In short: as §1

[1] = GST-tagged reader, histone peptide array

Substance: H3K4me2 + T6p: H3 1-20
- Array Heatmap signal, ING1 (ING1; [1]): 0.5538
- Array Heatmap signal, PHF2 (PHF2; [1]): 0.5776
- Array Heatmap signal, CHD4 (PPCC) (CHD4 (PPCC); [1]): 0.5639
- Array Heatmap signal, TAF3 (TAF3; [1]): 0.2971
- Array Heatmap signal, KDM5A (3) (KDM5A (3); [1]): 0.5519
- Array Heatmap signal, CHD5 (PCC) (CHD5 (PCC); [1]): 0.7961
- Array Heatmap signal, BAZ2B (BAZ2B; [1]): 0.3939
- Array Heatmap signal, AIRE (PP) (AIRE (PP); [1]): 0.3956
- Array Heatmap signal, PHF23 (PHF23; [1]): 0.5061
- Array Heatmap signal, MLL5 (MLL5; [1]): 0.5839
- Array Heatmap signal, PHF13 (PHF13; [1]): 0.5699
- Array Heatmap signal, ING5 (ING5; [1]): 0.3133
- Array Heatmap signal, KDM4C (TTP) (KDM4C (TTP); [1]): 0.4526
- Array Heatmap signal, KDM5B (1) (KDM5B (1); [1]): 0.6237
- Array Heatmap signal, KDM5A (1) (KDM5A (1); [1]): 0.3957
- Array Heatmap signal, PHF8 (PHF8; [1]): 0.3931
- Array Heatmap signal, PHRF1 (RP) (PHRF1 (RP); [1]): 0.4464
- Array Heatmap signal, PHF21A (PHF21A; [1]): 0.4239
- Array Heatmap signal, RAG2 (RAG2; [1]): 0.2424
- Array Heatmap signal, ING3 (ING3; [1]): 0.4685
- Array Heatmap signal, ING4 (ING4; [1]): 0.4083
- Array Heatmap signal, BPTF (PB) (BPTF (PB); [1]): 0.3354
- Array Heatmap signal, KDM5B (3) (KDM5B (3); [1]): 0.4514
- Array Heatmap signal, SP140L (SP140L; [1]): 0.3405
- Array Heatmap signal, MORC3 (CW) (MORC3 (CW); [1]): 0.4606
- Array Heatmap signal, DPF2 (PPC2W2) (DPF2 (PPC2W2); [1]): 0.6113
- Array Heatmap signal, KDM7A (KDM7A; [1]): 0.3717
- Array Heatmap signal, TRIM66 (PB) (TRIM66 (PB); [1]): 0.586
- Array Heatmap signal, CHD5 (PPCC) (CHD5 (PPCC); [1]): 0.4881
- Array Heatmap signal, DIDO1 (DIDO1; [1]): 0.7205
- Array Heatmap signal, ING2 (ING2; [1]): 0.6785

Substance: H3K4me3 (1-7): H3 1-7 (ART[Lys(Me3)]QTA; UniProt P68431 2-8, looked up, fragment)
- Array Heatmap value (peptide array signal) (ING1; ING1, each array performed twice): 0.5185
- Array Heatmap value (peptide array signal) (PHF2; PHF2, each array performed twice): 0.4609
- Array Heatmap value (peptide array signal) (CHD4 (PPCC); CHD4 (PPCC), each array performed twice): 0.5649
- Array Heatmap value (peptide array signal) (TAF3; TAF3, each array performed twice): 0.3574
- Array Heatmap value (peptide array signal) (KDM5A (3); KDM5A (3), each array performed twice): 0.5067
- Array Heatmap value (peptide array signal) (CHD5 (PCC); CHD5 (PCC), each array performed twice): 0.8146
- Array Heatmap value (peptide array signal) (BAZ2B; BAZ2B, each array performed twice): 0.5069
- Array Heatmap value (peptide array signal) (AIRE (PP); AIRE (PP), each array performed twice): 0.5351
- Array Heatmap value (peptide array signal) (PHF23; PHF23, each array performed twice): 0.5369
- Array Heatmap value (peptide array signal) (MLL5; MLL5, each array performed twice): 0.7048
- Array Heatmap value (peptide array signal) (PHF13; PHF13, each array performed twice): 0.6272
- Array Heatmap value (peptide array signal) (ING5; ING5, each array performed twice): 0.4084
- Array Heatmap value (peptide array signal) (KDM4C (TTP); KDM4C (TTP), each array performed twice): 0.5656
- Array Heatmap value (peptide array signal) (KDM5B (1); KDM5B (1), each array performed twice): 0.7094
- Array Heatmap value (peptide array signal) (KDM5A (1); KDM5A (1), each array performed twice): 0.4902
- Array Heatmap value (peptide array signal) (PHF8; PHF8, each array performed twice): 0.544
- Array Heatmap value (peptide array signal) (PHRF1 (RP); PHRF1 (RP), each array performed twice): 0.3886
- Array Heatmap value (peptide array signal) (PHF21A; PHF21A, each array performed twice): 0.4644
- Array Heatmap value (peptide array signal) (RAG2; RAG2, each array performed twice): 0.3345
- Array Heatmap value (peptide array signal) (ING3; ING3, each array performed twice): 0.472
- Array Heatmap value (peptide array signal) (ING4; ING4, each array performed twice): 0.4911
- Array Heatmap value (peptide array signal) (BPTF (PB); BPTF (PB), each array performed twice): 0.3708
- Array Heatmap value (peptide array signal) (KDM5B (3); KDM5B (3), each array performed twice): 0.5187
- Array Heatmap value (peptide array signal) (SP140L; SP140L, each array performed twice): 0.3724
- Array Heatmap value (peptide array signal) (MORC3 (CW); MORC3 (CW), each array performed twice): 0.489
- Array Heatmap value (peptide array signal) (DPF2 (PPC2W2); DPF2 (PPC2W2), each array performed twice): 0.6324
- Array Heatmap value (peptide array signal) (KDM7A; KDM7A, each array performed twice): 0.7221
- Array Heatmap value (peptide array signal) (TRIM66 (PB); TRIM66 (PB), each array performed twice): 0.5289
- Array Heatmap value (peptide array signal) (CHD5 (PPCC); CHD5 (PPCC), each array performed twice): 0.5698
- Array Heatmap value (peptide array signal) (DIDO1; DIDO1, each array performed twice): 0.6423
- Array Heatmap value (peptide array signal) (ING2; ING2, each array performed twice): 0.6464
